Assays:
human ACC2 = molecular target: T1, human ACC2 (Homo sapiens, UniProt O00763); experiment: Measurement of ACC2 inhibitory activity (malachite green, recombinant ACC2 (Nd)); format: biochemical; conditions: read-out: ACC2 inhibitory rate (%)
T1 construct: His6 (from vector pFAST-BacHTa); made in house; host or cells: SF-9 insect cells, recombinant baculovirus BAC-ACC2 (Nd)
Procedure: The ACC2 inhibitory action of the compound of the present invention was evaluated by the following method.
(1) Cloning of Human ACC2 Gene and Preparation of Recombinant Baculovirus
Human ACC2 gene was cloned by PCR using a human skeletal muscle cDNA library (Clontech) as a template and Primer 1 and Primer 2 shown below. Primer 1 and Primer 2 were prepared by adding SalI, XbaI restriction enzyme recognition sequences based on the information of the base sequence of human ACC2 gene (Genbank Accession U89344).
(§1) PCR was performed using Pyrobest DNA polymerase (TAKARA BIO INC.). The obtained PCR product was cloned to pT7 Blue vector (Novagen) and after confirmation of the base sequence, digested with restriction enzymes SalI and XbaI. The obtained DNA fragment was inserted into pFAST-BacHTa (Invitrogen) digested with restriction enzymes SalI and XbaI to give expression plasmid ACC2/pFAST-BacHTa.
A plasmid for expression of ACC2 without a mitochondrial targeting sequence was prepared by PCR using the expression plasmid as a template, and Primer 3 (SalI restriction enzyme recognition sequence was added) and Primer 4 prepared by reference to the information of human ACC2 gene base sequence (Genbank Accession U89344).
as §1, with “Pyrobest-DNA” for “Pyrobest DNA”, “AflII.” for “XbaI.”, “ACC2/pFAST-BacHTa” for “pFAST-BacHTa (Invitrogen)”, “AflII” for “XbaI”, “ACC2mito7/pFAST-BacHTa.” for “ACC2/pFAST-BacHTa.”
Using the expression plasmid ACC2mito7/pFAST-BacHTa and BAC-TO-BAC Baculovirus Expression System (Invitrogen), virus stock BAC-ACC2 of recombinant Baculovirus (N terminal deleted (hereinafter Nd)) was prepared.
(2) Preparation of ACC2 (Nd) Protein
SF-9 cells (Invitrogen) were inoculated to a medium (2 L) for insect cells (Sf-900IISFM medium (Invitrogen) containing 10% fetal bovine serum (Trace), 50 mg/L Gentamicin (Invitrogen), 0.1% Pluronic F-68 (Invitrogen)) at 0.5×10^6 cells/mL, and cultured with shaking in Wave Bioreactor (Wave) at 27° C., 20 rpm, rocking angle 6°, oxygen concentration 30%.
On day 4 of the culture, 3 L of the medium for insect cells was added, the rocking angle was set to 8°, and the cells were further cultured. On day 5 of the culture, 100 mL of recombinant Baculovirus BAC-ACC2 (Nd) was added, 5 L of the medium for insect cells was further added, the rocking angle was set to 11°, and the cells were cultured for 3 days. The culture medium was centrifuged at 1000×g for 10 min to give virus-infected cells. The cells were washed with phosphate buffered saline (Invitrogen) and centrifuged under the same conditions. The obtained cells were cryopreserved at −80° C.
The cryopreserved cells were thawed in ice and suspended in 900 mL of 25 mM HEPES buffer (pH 7.5) containing 10% Glycerol, 0.13 M NaCl, 1 mM EDTA, 25 mM Sodium β-Glycerophosphate and 1 mM Sodium Orthovanadate, and supplemented with Complete Protease Inhibitor (Nippon Boehringer Ingelheim Co., Ltd.). The obtained suspension was homogenized three times in a polytron homogenizer (Kinematica) at 20,000 rpm for 30 sec. The obtained cell disruption solution was clarified by centrifugation at 31000×g for 60 min, and filtered through a 0.45 μm filter. The filtrate was passed through a column packed with 60 mL of Ni-NTA Super Flow Gel (QUIAGEN) at a flow rate of about 5 mL/min. The column was washed with buffer A (50 mM HEPES (pH 7.5) containing 0.3 M NaCl), further washed with buffer A containing 20 mM Imidazole, and eluted with buffer A containing 100 mM Imidazole. The eluate was concentrated with Vivaspin 20 (Vivascience) with a molecular weight cut off of 30K. The obtained concentrate was dialyzed against 50 mM HEPES (pH 7.5) containing 10 mM MgCl2, 2 mM Dithiothreitol, 10 mM Tripotassium Citrate and 0.3 M NaCl. The inner dialysate was filtered through a 0.22 μm filter to give ACC2 (Nd). […]

[1] = Respiratory quotient (RQ) measurement in rats on Western diet; format: in vivo, rat; conditions: 20 mg/kg by gavage, male F344/Jcl rats, Mean ± S.D., N = 5
Procedure: 5-week-old male F344/Jcl rats (CLEA Japan, Inc., Tokyo) were acclimated to the rearing environment for 1 week after purchase and the diet was changed to Western diet (D12079B, Research diet). They were used for the experiment of Respiratory quotient (RQ) measurement at 8-week-old. For the RQ measurement experiment, the body weight was measured in the late afternoon (15:30-16:30) of the previous day and the morning (8:00-9:00) of the day, and the rats with high or low body weight increase were excluded. To the animals were administered by gavage 15 mL/kg of a liquid diet (F2LCW, Oriental Yeast Co., Ltd) prepared to a concentration of 4.95 g/15 mL (1.436 kcal/mL), and they were placed in an indirect calorimeter (Oxymax) chamber manufactured by Columbus Instruments, and RQ was recorded every 10 min. RQ values were confirmed about 1 hr after the start of the measurement and the animals were grouped (5 per group) such that a difference between groups would be small. For medication, a solvent (0.5% Methyl Cellulose, Wako Pure Chemical Industries, Ltd.) or a test compound (0.5% Methyl Cellulose suspension) was administered by gavage at 5 mL/kg. RQ was measured at 10 minute intervals from 0 to 3 hours after administration, and the average thereof was calculated. All values are shown in mean±standard deviation and statistical analysis was performed by the Dunnett-test.

[2] = Body weight after 4 weeks of oral administration in rats on Western diet (anti-obesity action); format: in vivo, rat; conditions: male F344/Jcl rats; for body weight after administration for 4 weeks: Western diet, Mean ± S.D., N = 6
Procedure: 6-week-old male F344/Jcl rats (CLEA Japan, Inc., Tokyo) were individually reared immediately after purchase and Western diet (D12079B, Research diet) was given. From the next day, an acclimation dosing (0.5% Methyl Cellulose, 5 mL/kg, oral administration) was started (once between 8:00 AM and 11:00 AM) and body weight and food consumption amount were appropriately measured. The rats with body weight and consumption amount extremely out of the average values in the acclimation dosing period were excluded. At the stage of 7-week-old, the body weight, food consumption amount, and body fat by Echo-MRI were measured, and the rats were grouped (6 per group) based on these measurement results. During 4 weeks of the test period, body weight was measured between 8:00 AM and 11:00 AM, and a solvent (0.5% Methyl Cellulose) or a test compound (0.5% Methyl Cellulose suspension) was consecutively administered by gavage at 5 mL/kg.
4 Weeks later, the body weight was measured in the morning. All values show mean±standard deviation and Williams' test and t-test were used for statistical analysis.

T1 sequence (O00763 117-2458 limits assumed): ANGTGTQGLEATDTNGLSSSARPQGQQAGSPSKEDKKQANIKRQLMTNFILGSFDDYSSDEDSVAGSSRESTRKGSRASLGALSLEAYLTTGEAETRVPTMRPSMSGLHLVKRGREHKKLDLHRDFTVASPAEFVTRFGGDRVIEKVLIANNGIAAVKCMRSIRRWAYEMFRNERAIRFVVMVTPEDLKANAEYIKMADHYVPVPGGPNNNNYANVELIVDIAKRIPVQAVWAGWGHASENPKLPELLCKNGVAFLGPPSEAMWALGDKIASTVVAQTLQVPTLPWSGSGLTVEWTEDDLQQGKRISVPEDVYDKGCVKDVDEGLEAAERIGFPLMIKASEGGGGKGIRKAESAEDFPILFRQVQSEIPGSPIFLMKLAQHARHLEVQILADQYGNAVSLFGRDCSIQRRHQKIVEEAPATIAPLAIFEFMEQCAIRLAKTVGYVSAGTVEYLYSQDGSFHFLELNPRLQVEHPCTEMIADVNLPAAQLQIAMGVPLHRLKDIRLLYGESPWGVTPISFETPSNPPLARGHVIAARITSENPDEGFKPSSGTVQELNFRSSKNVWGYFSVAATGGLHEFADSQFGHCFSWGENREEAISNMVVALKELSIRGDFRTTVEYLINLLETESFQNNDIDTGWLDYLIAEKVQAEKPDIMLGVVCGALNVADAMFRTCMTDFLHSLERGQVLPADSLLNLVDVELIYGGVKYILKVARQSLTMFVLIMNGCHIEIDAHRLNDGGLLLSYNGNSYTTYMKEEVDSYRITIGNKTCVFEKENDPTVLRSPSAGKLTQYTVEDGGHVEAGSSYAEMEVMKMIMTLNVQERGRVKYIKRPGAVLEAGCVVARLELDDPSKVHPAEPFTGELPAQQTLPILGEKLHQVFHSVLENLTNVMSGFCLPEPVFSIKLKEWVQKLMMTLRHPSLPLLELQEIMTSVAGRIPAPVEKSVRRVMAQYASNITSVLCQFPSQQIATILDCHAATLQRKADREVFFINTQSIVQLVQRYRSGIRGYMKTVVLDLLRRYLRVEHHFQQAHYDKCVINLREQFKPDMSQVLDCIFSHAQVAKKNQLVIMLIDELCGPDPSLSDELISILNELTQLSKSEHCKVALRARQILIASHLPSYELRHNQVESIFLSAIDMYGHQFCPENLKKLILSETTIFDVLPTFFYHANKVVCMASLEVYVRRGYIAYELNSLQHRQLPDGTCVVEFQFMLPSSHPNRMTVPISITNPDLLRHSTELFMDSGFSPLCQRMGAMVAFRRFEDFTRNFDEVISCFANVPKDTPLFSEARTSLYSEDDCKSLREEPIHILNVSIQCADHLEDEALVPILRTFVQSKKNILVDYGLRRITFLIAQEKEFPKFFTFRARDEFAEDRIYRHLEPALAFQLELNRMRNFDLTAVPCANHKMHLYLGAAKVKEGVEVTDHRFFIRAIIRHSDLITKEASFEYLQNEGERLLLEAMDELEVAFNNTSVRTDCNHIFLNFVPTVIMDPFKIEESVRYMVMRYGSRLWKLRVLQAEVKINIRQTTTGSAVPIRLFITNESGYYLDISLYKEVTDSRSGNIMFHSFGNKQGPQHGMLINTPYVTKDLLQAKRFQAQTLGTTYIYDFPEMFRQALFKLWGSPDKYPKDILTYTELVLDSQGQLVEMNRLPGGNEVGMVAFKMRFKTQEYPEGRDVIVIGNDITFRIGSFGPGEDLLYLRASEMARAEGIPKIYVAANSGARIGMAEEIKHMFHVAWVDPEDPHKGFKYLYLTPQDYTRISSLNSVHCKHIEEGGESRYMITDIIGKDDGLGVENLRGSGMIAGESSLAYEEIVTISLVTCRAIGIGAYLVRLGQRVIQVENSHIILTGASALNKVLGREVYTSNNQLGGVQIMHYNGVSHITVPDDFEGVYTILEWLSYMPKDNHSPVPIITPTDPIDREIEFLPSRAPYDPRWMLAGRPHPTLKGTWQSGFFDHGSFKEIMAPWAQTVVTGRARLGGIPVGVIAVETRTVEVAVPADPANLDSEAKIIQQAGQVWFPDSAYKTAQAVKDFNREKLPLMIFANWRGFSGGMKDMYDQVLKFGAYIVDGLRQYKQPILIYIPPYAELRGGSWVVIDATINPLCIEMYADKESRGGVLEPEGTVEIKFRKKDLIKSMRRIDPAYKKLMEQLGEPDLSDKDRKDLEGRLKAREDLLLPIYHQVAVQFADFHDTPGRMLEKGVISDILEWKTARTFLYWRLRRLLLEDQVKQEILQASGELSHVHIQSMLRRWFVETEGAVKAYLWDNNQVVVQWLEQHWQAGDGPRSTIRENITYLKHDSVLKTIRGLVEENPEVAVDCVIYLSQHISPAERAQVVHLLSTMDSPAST

Row | Compound | inhibition at 10 µM (human ACC2) [%] | melting point [°C] | further results
1 | CC(=O)NC(C)CCC1CCN(c2nc3ccc(OCC4CC4)cc3o2)CC1 (racemic) [Example 5, N-(3-{1-[6-(cyclopropylmethoxy)-1,3-benzoxazol-2-yl]piperidin-4-yl}-1-methylpropyl)acetamide] | 104 | 131 to 132 | 
2 | CC(=O)N[C@@H](C)COC1CCN(c2nc3cc(OCC4CC4)ccc3s2)CC1 [Example 3, N-[(1S)-2-({1-[5-(cyclopropylmethoxy)-1,3-benzothiazol-2-yl]piperidin-4-yl}oxy)-1-methylethyl]acetamide] | 104 |  | 
3 | CC(=O)N[C@@H](C)CCC1CCN(c2nc3ccc(OCC4CC4)cc3o2)CC1 [Example 5a, N-[(1S)-(3-{1-[6-(cyclopropylmethoxy)-1,3-benzoxazol-2-yl]piperidin-4-yl}-1-methylpropyl)]acetamide] | 106 | 138.2 to 138.4 | 
4 | CC(=O)N[C@@H](C)COC1CCN(c2nc3ccc(OCC(C)C)cc3o2)CC1 [Example 33, N-[(1S)-1-methyl-2-({1-[6-(2-methylpropoxy)-1,3-benzoxazol-2-yl]piperidin-4-yl}oxy)ethyl]acetamide] | 99 | 103 to 105 | 
5 | CC(=O)NC(C)CO[C@H]1CC[C@H](c2cc3ccc(OCC4CC4)cc3o2)CC1 (stereo partly drawn) [Example 38, N-[2-({trans-4-[6-(cyclopropylmethoxy)-1-benzofuran-2-yl]cyclohexyl}oxy)-1-methylethyl]acetamide] |  | 104 to 105 | 
6 | CC(=O)NC(C)CO[C@H]1CC[C@H](c2nc3ccc(OCC4CC4)cc3o2)CC1 (stereo partly drawn) [Example 39, N-[2-({trans-4-[6-(cyclopropylmethoxy)-1,3-benzoxazol-2-yl]cyclohexyl}oxy)-1-methylethyl]acetamide] |  | 131 to 132 | 
7 | CC(=O)N[C@@H](C)CO[C@H]1CC[C@H](n2cc3ccc(OCCC4CC4)cc3n2)CC1 [Example 40, N-[(1S)-2-({trans-4-[6-(2-cyclopropylethoxy)-2H-indazol-2-yl]cyclohexyl}oxy)-1-methylethyl]acetamide] |  | 98 to 99 | 
8 | CC(=O)NC(C)CC[C@H]1CC[C@H](n2cc3ccc(OCC4CC4)cc3n2)CC1 (stereo partly drawn) [Example 41, N-(3-{trans-4-[6-(cyclopropylmethoxy)-2H-indazol-2-yl]cyclohexyl}-1-methylpropyl)acetamide] |  | 139 to 140 | 

Continued, in another order:

Row | inhibition at 10 µM (human ACC2) [%] | melting point [°C] | Compound | further results
9 | 97 | 122 to 123 | CC(=O)N[C@@H](C)COC1CCN(c2nc3ccc(OCC4CC4)cc3o2)CC1 [Example 1, N-[(1S)-2-({1-[6-(cyclopropylmethoxy)-1,3-benzoxazol-2-yl]piperidin-4-yl}oxy)-1-methylethyl]acetamide] | average RQ of 0 to 3 hours after administration [1]: 0.795 ± 0.013; comparison with control group (body weight after 4 weeks) ([2]; 20 mg/kg/day by gavage): −6.1%; body weight after administration for 4 weeks ([2]; 20 mg/kg/day by gavage): 265.1 ± 7.2
10 | 100 | 99 to 100 | CC(=O)N[C@@H](C)COC1CCN(c2nc3cc(OCC4CC4)ccc3o2)CC1 [Example 2, N-[(1S)-2-({1-[5-(cyclopropylmethoxy)-1,3-benzoxazol-2-yl]piperidin-4-yl}oxy)-1-methylethyl]acetamide] | average RQ of 0 to 3 hours after administration [1]: 0.787 ± 0.019; comparison with control group (body weight after 4 weeks) ([2]; 10 mg/kg/day by gavage): −5.4%; body weight after administration for 4 weeks ([2]; 10 mg/kg/day by gavage): 267.2 ± 4.1; comparison with control group (body weight after 4 weeks) ([2]; 20 mg/kg/day by gavage): −6.0%; body weight after administration for 4 weeks ([2]; 20 mg/kg/day by gavage): 265.4 ± 10.8
11 | 100 |  | CC(COC1CCN(c2nc3ccc(OCC4CC4)cc3o2)CC1)Nc1ccon1 (stereo not drawn) [Example 4, N-[2-({1-[6-(cyclopropylmethoxy)-1,3-benzoxazol-2-yl]piperidin-4-yl}oxy)-1-methylethyl]isoxazol-3-amine] | 
12 | 98 | 109 to 110 | CC(=O)N[C@@H](C)COC1CCN(c2nc3cc(OCC4CCC4)ccc3o2)CC1 [Example 6, N-[(1S)-2-({1-[5-(cyclobutylmethoxy)-1,3-benzoxazol-2-yl]piperidin-4-yl}oxy)-1-methylethyl]acetamide] | 
13 | 100 |  | Cc1conc1NC(C)COC1CCN(c2nc3ccc(OCC4CC4)cc3o2)CC1 (stereo not drawn) [Example 7, N-[2-({1-[6-(cyclopropylmethoxy)-1,3-benzoxazol-2-yl]piperidin-4-yl}oxy)-1-methylethyl]-4-methylisoxazol-3-amine] | 
14 | 102 |  | CC(=O)N[C@@H](C)COC1CCN(c2nc3ccc(OCC4CCC4)cc3o2)CC1 [Example 34, N-[(1S)-2-({1-[6-(cyclobutylmethoxy)-1,3-benzoxazol-2-yl]piperidin-4-yl}oxy)-1-methylethyl]acetamide] | 
15 | 102 | 99.3 to 99.6 | CC(=O)N[C@@H](C)COC1CCN(c2nc3ccc(OCCC4CC4)cc3o2)CC1 [Example 35, N-[(1S)-2-({1-[6-(2-cyclopropylethoxy)-1,3-benzoxazol-2-yl]piperidin-4-yl}oxy)-1-methylethyl]acetamide] | 
